Measurements from EP3974434B1, “MACROLIDE DERIVATIVES, PREPARATION METHOD AND APPLICATION THEREOF” (Zhejiang Hisun Pharmaceutical Co., Ltd., priority 2019, dated 2020).
Where two headings read alike, the source gives them in different places.

Key:
[1] = tested on: KARPAS-299 (human anaplastic large cell lymphoma cell); assay: Cell proliferation assay (CellTiter-Glo), KARPAS-299; assay type: cell-based; details: 72 hours, NPM-ALK fusion
From the text: The following method was used to determine the effects of the compounds of the present invention on cell proliferation. H2228 cells (containing EML4-ALK fusion) were purchased from Cell Resource Center of Shanghai Institutes for Biological Sciences, Chinese Academy of Sciences. KARPAS-299 cells (containing NPM-ALK fusion) were purchased from Nanjing COBIOER Biotechnology Co., Ltd. The above two cell lines were used to determine the inhibition of the compounds on cell activities. The cells were cultured in an RPMI 1640 medium containing 10% fetal bovine serum, 100 U penicillin, 100 µg/mL streptomycin, and 1 mM Sodium Pyruvate. The cells were cultured in a 5% CO2 incubator at 37°C. The activity of the cells was determined by CellTiter-Glo® Luminescent Cell Viability Assay kit (Promega, article number: G7573).
The experimental methods were operated according to the steps in the kit instruction, and were briefly described as follows: a test compound was first dissolved in DMSO to prepare a storage solution, and then diluted in gradient with the corresponding cell culture medium to prepare a test sample. […] After the culture, 50 µL of CellTiter-Glo detection solution was added to each well, shaken for 5 minutes, and then stood for 10 minutes, and the luminescence values of each well were read on the microplate reader using a Luminance mode. […]

[2] = biological target: T1, ROS1(G2032R) (Homo sapiens, UniProt P08922, G2032R); assay: HTRF KinEASE-TK kinase activity inhibition assay, ROS1(G2032R); assay type: biochemical; details: ATP 0.5 µM
T1 construct: purchased SignalChem R14-12BG-10
T1 sequence (P08922 28-2347 G2032R): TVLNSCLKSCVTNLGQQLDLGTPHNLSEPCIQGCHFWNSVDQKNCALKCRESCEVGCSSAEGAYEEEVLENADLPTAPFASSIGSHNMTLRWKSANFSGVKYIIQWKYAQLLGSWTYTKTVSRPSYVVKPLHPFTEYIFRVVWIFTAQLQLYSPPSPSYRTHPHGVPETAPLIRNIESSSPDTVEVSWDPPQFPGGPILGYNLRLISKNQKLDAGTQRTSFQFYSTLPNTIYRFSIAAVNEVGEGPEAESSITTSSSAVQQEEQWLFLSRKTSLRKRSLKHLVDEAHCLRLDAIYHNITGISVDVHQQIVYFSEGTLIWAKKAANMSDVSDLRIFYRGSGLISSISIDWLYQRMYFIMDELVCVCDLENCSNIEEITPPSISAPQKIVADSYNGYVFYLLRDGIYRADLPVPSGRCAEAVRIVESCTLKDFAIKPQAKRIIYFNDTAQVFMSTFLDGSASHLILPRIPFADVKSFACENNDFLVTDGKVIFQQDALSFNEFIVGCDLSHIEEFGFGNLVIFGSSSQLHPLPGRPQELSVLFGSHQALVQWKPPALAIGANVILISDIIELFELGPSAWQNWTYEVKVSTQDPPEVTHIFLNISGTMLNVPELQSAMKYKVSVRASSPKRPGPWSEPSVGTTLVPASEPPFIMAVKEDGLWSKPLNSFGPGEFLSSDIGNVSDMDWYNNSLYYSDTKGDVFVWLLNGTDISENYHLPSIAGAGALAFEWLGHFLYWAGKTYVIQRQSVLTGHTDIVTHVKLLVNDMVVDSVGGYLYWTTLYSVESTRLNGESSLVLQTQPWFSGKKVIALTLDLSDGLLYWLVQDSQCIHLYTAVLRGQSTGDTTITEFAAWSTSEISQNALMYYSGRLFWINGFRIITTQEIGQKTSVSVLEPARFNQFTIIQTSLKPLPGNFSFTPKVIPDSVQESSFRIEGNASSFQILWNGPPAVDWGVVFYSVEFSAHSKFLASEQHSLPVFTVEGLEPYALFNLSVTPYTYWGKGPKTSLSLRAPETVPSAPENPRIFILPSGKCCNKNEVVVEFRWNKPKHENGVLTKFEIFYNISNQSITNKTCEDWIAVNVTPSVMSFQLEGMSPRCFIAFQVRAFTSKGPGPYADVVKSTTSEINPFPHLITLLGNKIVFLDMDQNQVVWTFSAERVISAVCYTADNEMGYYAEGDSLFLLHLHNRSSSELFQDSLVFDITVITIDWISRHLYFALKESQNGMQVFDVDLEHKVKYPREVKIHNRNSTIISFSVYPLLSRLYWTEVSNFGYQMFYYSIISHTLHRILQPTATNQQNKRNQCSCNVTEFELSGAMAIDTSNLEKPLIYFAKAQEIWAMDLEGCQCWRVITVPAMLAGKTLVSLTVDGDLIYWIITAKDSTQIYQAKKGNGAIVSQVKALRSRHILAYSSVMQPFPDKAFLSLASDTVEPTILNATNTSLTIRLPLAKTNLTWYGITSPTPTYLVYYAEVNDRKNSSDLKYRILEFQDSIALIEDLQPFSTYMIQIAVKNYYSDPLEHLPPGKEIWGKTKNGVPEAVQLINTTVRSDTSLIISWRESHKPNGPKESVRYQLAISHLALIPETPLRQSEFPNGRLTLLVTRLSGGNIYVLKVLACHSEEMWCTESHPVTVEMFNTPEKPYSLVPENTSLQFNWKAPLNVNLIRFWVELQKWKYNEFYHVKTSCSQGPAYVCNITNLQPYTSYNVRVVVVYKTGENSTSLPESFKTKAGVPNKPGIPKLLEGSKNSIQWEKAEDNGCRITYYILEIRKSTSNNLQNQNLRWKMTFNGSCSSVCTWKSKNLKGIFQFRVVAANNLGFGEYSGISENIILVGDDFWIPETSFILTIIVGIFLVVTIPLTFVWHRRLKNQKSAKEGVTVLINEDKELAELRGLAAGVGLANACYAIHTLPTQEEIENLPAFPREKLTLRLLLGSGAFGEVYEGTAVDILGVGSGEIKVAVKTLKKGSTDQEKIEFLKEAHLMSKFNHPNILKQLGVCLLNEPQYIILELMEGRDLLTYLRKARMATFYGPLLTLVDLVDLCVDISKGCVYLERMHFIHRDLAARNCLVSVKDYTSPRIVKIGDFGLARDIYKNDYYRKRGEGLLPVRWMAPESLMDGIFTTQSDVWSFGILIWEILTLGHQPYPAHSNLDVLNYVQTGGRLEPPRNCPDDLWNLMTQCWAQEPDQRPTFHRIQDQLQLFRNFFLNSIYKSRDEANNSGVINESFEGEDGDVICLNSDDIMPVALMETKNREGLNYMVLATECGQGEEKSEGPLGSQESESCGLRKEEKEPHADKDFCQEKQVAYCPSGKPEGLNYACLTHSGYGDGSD
From the text: (§1) The following method was used to determine the inhibition degrees of the compounds of the present invention on the activity of recombinant human ROS1 kinase in vitro. In this method, HTRF®KinEASE-TK tyrosine kinase kit (article No. 62TK0PEB) of Cisbio company was used, the principle of the kit was based on time-resolved fluorescence resonance energy transfer (TF-FRET), and the inhibition of the compounds on the activity of the ROS1 kinase was reflected by determining a phosphorylation degree of a biotinylated polypeptide substrate mediated by ROS1 kinase. For detailed experimental operation, please refer to the kit instruction. […]
(§2) The experimental flow was briefly described as follows: a test compound was first dissolved in DMSO to prepare a storage solution, and then diluted in gradient with a buffer provided in the kit. […] An ATP Km value concentration of each ROS1 protein was determined by using an ATP solution diluted in gradient (Sangon Biotech (Shanghai) Co., Ltd., A600311). […] After incubation, fluorescence intensity values of each well at an excitation wavelength of 304 nm, and emission wavelengths of 620 nm and 665 nM were determined in a TF-FRET mode on a microplate reader, and the fluorescence intensity ratio 665/620 of each hole was calculated. […]

[3] = biological target: T2, ROS1 (Homo sapiens, UniProt P08922); assay: HTRF KinEASE-TK kinase activity inhibition assay, ROS1; assay type: biochemical; details: ATP 1 µM
T2 construct: purchased SignalChem R14-11G-10
T2 sequence (P08922 28-2347): as the sequence (P08922 28-2347 G2032R) above, with R2005G counted along it
From the text: as §1, §2

[4] = Pharmacokinetic study on ICR mice (plasma, LC-MS/MS); assay type: in vivo; details: male, mouse; for bioavailability: 5 mg/kg oral intake vs 1 mg/kg injection, read-out: Bioavailability F(%); for AUC(0-inf): read-out: Area under curve AUC0-∞; for Cmax: read-out: Blood concentration Cmax; for half-life: read-out: Half-life T1/2(h) (converted); for clearance: read-out: Clearance rate
Method: ICR mice, male, 29.0 g to 33.8g, purchased from Beijing Charles River Laboratory Animal Technology Co., Ltd.
Intravenous injection group: an appropriate amount of drug was weighed, and added with mixed solvent (DMA: 30% Solutol HS-15: Saline = 10: 10: 80 (v/v/v)) to prepare the drug with a final concentration of 0.2 mg/mL.
Oral gavage administration group: an appropriate amount of drug was weighed, added with an appropriate amount of sodium carboxymethyl cellulose (CMC-Na, containing 0.5% Tween 80), vortex shaked, and ultrasonically prepared into […] suspension.
For ICR mice, each compound to be tested was divided into an intravenous injection group (9 mice in each group) and an intragastric group (9 mice in each group). The ICR mice were fasted overnight and then administered by orbital intravenous injection (administration dose of 1 mg/kg, and administration volume of 5 mL/kg) and administered by intragastric injection (administration dose of 5 mg/kg, and administration volume of 10 mL/kg), and ate 4 hours after administration.
About 0.2 mL of blood was collected via jugular vein before administration and 0.083 hour, 0.25 hour, 0.5 hour, 1 hour, 2 hours, 4 hours, 8 hours, 12 hours and 24 hours after administration, and heparin sodium was used for anticoagulation. The collected blood samples were placed on ice, and plasma was separated by centrifugation (centrifugation condition: 1500 g, 10 minutes). The collected plasma was stored at-40°C to -20°C before analysis.
LC-MS/MS was used to determine the contents of different compounds to be tested in mouse plasma after intravenous injection and intragastric administration.
The pharmacokinetic parameters of the compounds of the present invention and the positive control can be seen in Table 8. Table 8 Results of pharmacokinetic parameters

[5] = intravenous, 1 mg/kg, injection

Work on `C[C@H]1Nc2ccn3ncc(c3n2)C(=O)NC[C@@]2(C)Cc3cc(F)cc1c3O2` [Example 8, (3R,11R)-6-fluoro-3,11-dimethyl-10-oxa-2,13,17,1 8,21-pentaazapentacyclo[13.5.2.1^8,11.0^4,9.0^18,22]tric osa-1(21),4,6,8,15(22),16,19-heptaen-14-one] yielded an IC50 [1] of 65.5 nM, an IC50 [2] of 0.34 nM and an IC50 [3] of 0.36 nM. For the same compound, the bioavailability [4] was 53%, the AUC(0-inf) ([4]; 5 mg/kg, oral intake) was 5620 ng·h/mL and the Cmax ([4]; 5 mg/kg, oral intake) was 2260 ng/mL. The half-life ([4]; 5 mg/kg, oral intake) was 1.54 h, the AUC(0-inf) [4, 5] was 2100 ng·h/mL and the clearance [4, 5] was 7.9 mL/min/kg. It also gave a half-life [4, 5] of 1.47 h.

With `C[C@H]1Nc2ccn3nc(N)c(c3n2)C(=O)NC[C@@]2(C)Cc3cc(F)cc1c3O2` [Example 25, (3R,11R)-16-amino-6-fluoro-3,11-dimethyl-10-oxa-2,13,17,18,21-pentaazapentacyclo[13.5.2.1^8,11.0^4,9. 0^18,22]tricosa-1(21),4,6,8,15(22),16,19-heptaen-14-one] the IC50 [1] was 52.7 nM, the IC50 [2] was 2.11 nM and the IC50 [3] was 0.84 nM. The bioavailability [4] was 47%, the AUC(0-inf) ([4]; 5 mg/kg, oral intake) was 4850 ng·h/mL and the Cmax ([4]; 5 mg/kg, oral intake) was 1050 ng/mL. For the same compound, the half-life ([4]; 5 mg/kg, oral intake) was 3.15 h, the AUC(0-inf) [4, 5] was 2060 ng·h/mL and the clearance [4, 5] was 8.11 mL/min/kg. For the same compound, the half-life [4, 5] was 1.54 h.
